Experiments:
[1] = system: MDA-MB-231 control and PARG-KD cells; test: Sulforhodamine B (SRB) cytotoxicity, control vs PARG-KD cells; type: cell-based, human; settings: 72 h
From the text: Sulforhodamine B (SRB) Cytotoxicity Assay.

[2] = system: MRC-5 cells; settings: SRB
Procedure: Sulforhodamine B (SRB) Cytotoxicity Assay. […] Colorimetric or fluorescence analysis was performed in a FlexStation 3, using SoftMax Pro 7.0, Molecular Devices. Normalized graphs were generated with Prism 8 software, non-linear 4-parameter data fitting was performed for IC50 calculation.

[3] = system: HeLa cells; test: DNA fiber assay, replication fork progression; type: cell-based; settings: 10 μM, 2 hrs pretreatment
Procedure: DNA fiber assay. DNA fiber assay was conducted as described previously (Castillo et al. 2014). Briefly, cells pretreated with JA2131 (10 μM) or DMSO for 2 hrs were labeled with 100 μM CldU for 30 min and exposed to 250 μM IdU (with or without 0.4 mM hydroxyurea treatment) for another 30 min or 3 hrs. After labeling and treatment, cells were lysed and DNA fibers stretched onto glass slides. Immunofluorescence was carried out using α-IdU/α-BrdU (BD Biosciences) and α-CldU/α-BrdU (Abcam) and secondary antibodies, including Alexa Fluor 488 (green) and Alexa Fluor 555 (Invitrogen). Images were taken using a Nikon 80 microscope and analyzed using ImageJ software. Statistics were calculated using Prism software. 5-Chloro-2′-deoxyuridine (CIdU) and 5-Iodo-2′-deoxyuridine (IdU) were from Sigma.

[4] = system: MDA-MB-231 control and PARG-KD cells; test: Western blot of cellular PARylation (anti-PAR); type: cell-based, human
Procedure: Thus, dose-dependent JA2131-induced cellular PARylation with and without IR was investigated. For combined IR treatment, MDA-MB-231 cells were treated with JA2131 for 2 h, followed by 7 Gy X-ray and then allowed to recover for an hour before cellular extraction and Western blotting analysis.
Using shRNA, next, a stable MDA-MB-231 PARG knockdown (PARG-KD) cell-line was generated (FIG. 23). Comparison of PARGi JA2131-induced PARylation in PARG-KD and control cells was performed. It was reasoned that PARG-KD cells would show a reduced response to a selective PARGi as the stable PARG-KD cells would have to adopt a PARG-independent survival mechanism. MDA-MB-231 control cells and PARG-KD cells were treated with JA2131 then total cell lysates were subjected to immunoblotting with anti-PAR antibody, followed by immunodetection for anti-PARG, PARP1 and actin antibody (FIG. 22b). Untreated PARG-KD cells show a higher baseline level of PARylation than the control cells. […] Dose-response curves comparing control and PARG-KD cells further validate the selective action of JA2131 on control cells expressing PARG, but not on the PARG-KD cells (FIG. 25).
Antibodies and western blots. Cells were grown in 6-well plates and 10 cm dishes, treated with PARGi for 2 hours, irradiated and recovered for 1 hour before harvesting. Cells were irradiated, ranging from 1 to 10 Gy using RAD SOURCE, RS-2000, Biological System, RadSource.com. Cells were washed with phosphate buffer and saline (PBS) and lysed with buffer containing 50 mM Hepes, pH 7.5, 1% (v/v) igepal-C630, 1 mg/ml bacitracin, 1 mM EDTA, 10 mM NaF, 1 mM sodium orthovanadate, 10% (v/v) glycerol, 50 mM NaCl, 1 mM PMSF, and Protease Inhibitor Cocktail Set III (EMD Millipore). The detergent-soluble fraction was used for Western blotting. Cell fractionation was carried out using the Subcellular Protein Fractionation Kit (#78840, ThermoFisher) according to the manufacturer's instruction. Primary antibodies were purchased from the following sources; Actin, γH2AX and Histone-H3 was from Cell Signaling Technology. H2AX and LAMB1 were from Invitrogen/ThermoFisher. PCNA and p53 were from Santa Cruz biotechnology. Anti-PAR (10H) was from EMD Millipore, anti-PARG was from Cell Signaling Technology, and Anti-PARP1 was from ABCAM. Secondary antibodies were conjugated HRP (Cell Signaling) and ECL Clarity was purchased from Bio-Rad. All primary and secondary antibodies were diluted 1:1000 with 5% non-fat Blotting Grade Blocking Reagent in 1× TBST, except for anti-PAR 1:500.

[5] = system: PARP inhibitor resistant SUM149PT cells; test: PAR and γH2AX high content imaging in PARPi resistant cells; type: cell-based, human; settings: 10 μM, 2 hours, 3 Gy IR; four PARPi resistant clones and wild type
Procedure: PARPi resistant SUM149PT cells clone 6, 10, 11, 18 together with the wild type (WT) were treated with 10 μM JA2131 for 2 hours, irradiated 3Gy ionizing radiation and then fixed, immunofluorescence labelled for PAR and γH2AX. High content imaging showing specific accumulation of PAR and DNA damage induction observed with γH2AX signal in cells treated with PARGi. (Right) Immunoblotting of total cell-lysates of PARP1i resistant SUM149PT cells showing no change in the PARG (upper panel) and p53 (middle panel) protein expression level. Anti-actin was used as loading control (bottom panel).
PARG was evaluated as a therapeutic option for patients who become PARP1 inhibitor resistant. PARP1 inhibitor resistant SUM149PT triple negative breast cancer cell-lines were generated with 100 nM talazoparib for 5 constitutive days and then with 15-50 nM talazoparib until resistant cells grew into clones. The resulting resistant cell clones were propagated and expanded to generate PARP inhibitor resistant SUM149PT derivative cells that no longer responded to PARP1i treatment. It was then investigated whether the PARP resistant breast cancer cells would respond to the PARG inhibitors. Four PARPi resistant SUM149PT cell clones together with wild type cells were treated with JA2131. PAR accumulation and γH2AX foci formation were analyzed by high content imaging (FIG. 21).

[6] = biological target: PARP1 (Homo sapiens (Human), UniProt P09874); test: In vitro PARP1 auto-PARylation
Chain of PARP1 (P09874 whole entry): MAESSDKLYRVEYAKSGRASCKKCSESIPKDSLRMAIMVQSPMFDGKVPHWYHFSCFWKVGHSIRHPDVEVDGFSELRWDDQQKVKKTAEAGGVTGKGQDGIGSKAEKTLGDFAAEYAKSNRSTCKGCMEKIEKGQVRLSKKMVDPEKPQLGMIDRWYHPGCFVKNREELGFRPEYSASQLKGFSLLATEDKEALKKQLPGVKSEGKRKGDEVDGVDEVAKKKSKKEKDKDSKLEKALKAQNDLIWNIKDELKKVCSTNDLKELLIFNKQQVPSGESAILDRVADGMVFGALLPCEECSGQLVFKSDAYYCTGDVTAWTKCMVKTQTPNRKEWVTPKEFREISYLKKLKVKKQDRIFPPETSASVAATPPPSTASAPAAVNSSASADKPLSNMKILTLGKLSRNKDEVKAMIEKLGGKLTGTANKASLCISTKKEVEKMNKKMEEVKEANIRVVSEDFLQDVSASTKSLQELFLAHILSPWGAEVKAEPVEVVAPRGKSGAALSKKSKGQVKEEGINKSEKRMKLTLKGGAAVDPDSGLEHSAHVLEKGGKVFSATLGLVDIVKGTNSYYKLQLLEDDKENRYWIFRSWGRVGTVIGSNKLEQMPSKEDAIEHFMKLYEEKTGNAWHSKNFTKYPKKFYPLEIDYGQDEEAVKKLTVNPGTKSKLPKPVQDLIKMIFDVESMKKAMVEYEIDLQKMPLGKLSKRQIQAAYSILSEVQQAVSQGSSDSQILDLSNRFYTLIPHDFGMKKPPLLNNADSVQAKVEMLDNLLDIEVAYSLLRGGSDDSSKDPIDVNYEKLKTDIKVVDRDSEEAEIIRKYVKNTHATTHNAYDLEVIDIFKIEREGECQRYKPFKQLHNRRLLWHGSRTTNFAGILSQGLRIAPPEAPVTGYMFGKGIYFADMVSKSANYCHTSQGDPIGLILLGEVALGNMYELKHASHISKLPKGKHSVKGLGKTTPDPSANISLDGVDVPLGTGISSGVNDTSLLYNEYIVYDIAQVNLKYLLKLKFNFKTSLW

Compound: O=C1C(Cl)=C(Cl)C(Cl)(Cl)C(Cl)=C1Cl [JA2131]
- IC50 value for PARG-depleted cells compared to control cells [1]: ~10 fold
- PARG-KD cells that responded to the PARGi [1]: 50%
- cytotoxic dose in MRC-5 cells relative to MDA-MB-231 cells [2]: an order of magnitude higher
- average IdU tract ([3]; absence of genotoxic stress): 6.0 μm
- average IdU tract length ([3]; low dose of hydroxyurea): 5.0 μm
- cellular PARylation, PARGi combined with IR ([4]; MDA-MB-231, 100 nM, 2 h, 7 Gy X-ray, 1 h recovery): massive increase in cellular PARylation
- cellular PARylation, PARGi alone ([4]; MDA-MB-231, without IR, 1 to 5 μM doses): dose-dependent increase in cellular PARylation
- PAR accumulation in PARG-KD cells ([4]; MDA-MB-231 PARG knockdown cells): did not affect the level of PAR accumulation
- PAR accumulation in control cells expressing PARG ([4]; MDA-MB-231 control cells): measurable increase in PAR
- PAR accumulation and γH2AX staining [5]: increased PAR accumulation as well as γH2AX staining
- concentration up to which PARP1 activation was not inhibited ([6]; in vitro PARP1 auto PARylation): > 100 µM
- effect on PARP1 auto-PARylation / PAR synthesis by PARP1 ([6]; increasing concentration of compound): no effect
